Experimental data: PubChem BioAssay AID1259407 (Chemical Carcinogenesis Research Information System (CCRIS), 2018)
Activity calls are given as the source filed them. No rule for the calls is given here.

System: CCRIS mutagenicity, Ames/micronucleus/aberration tests
Assay: CCRIS mutagenicity studies

SMILES: CN(C)c1ccccc1
- mutagenic call (End Point: IN VITRO CHROMOSOMAL ABERRATIONS, Test System: CHO CELLS, Metabolic Activation: NONE): active; positive; at highest dose
- mutagenic call (End Point: IN VITRO CHROMOSOMAL ABERRATIONS, Test System: CHO CELLS, Metabolic Activation: RAT, LIVER, S-9, AROCLOR 1254): active; positive
- mutagenic call (End Point: In vitro chromosomal aberrations, Test System: Chinese hamster lung (CHL/IU) cells, Metabolic Activation: Rat, Liver, S9, Phenobarbital and 5,6-benzoflavone): active; positive (structural changes and ploidy)
- mutagenic call (Test System: AMES SALMONELLA TYPHIMURIUM, Strain/Indicator: TA97, Metabolic Activation: HAMSTER, LIVER, S-9, AROCLOR 1254 (10 OR 30%), Method: PREINCUBATION): inactive; negative
- mutagenic call (Test System: AMES SALMONELLA TYPHIMURIUM, Strain/Indicator: TA97, Metabolic Activation: NONE, Method: PREINCUBATION): inactive; negative
- mutagenic call (Test System: AMES SALMONELLA TYPHIMURIUM, Strain/Indicator: TA97, Metabolic Activation: RAT, LIVER, S-9, AROCLOR 1254 (10 OR 30%), Method: PREINCUBATION): inactive; negative
- mutagenic call (Test System: AMES SALMONELLA TYPHIMURIUM, Strain/Indicator: TA98, Metabolic Activation: HAMSTER, LIVER, S-9, AROCLOR 1254 (10 OR 30%), Method: PREINCUBATION): inactive; negative
- mutagenic call (Test System: AMES SALMONELLA TYPHIMURIUM, Strain/Indicator: TA98, Metabolic Activation: HAMSTER, LIVER, S-9, AROCLOR 1254, Method: PREINCUBATION): inactive; negative
- mutagenic call (Test System: AMES SALMONELLA TYPHIMURIUM, Strain/Indicator: TA98, Metabolic Activation: HAMSTER, LIVER, S-9, PHENOBARBITAL AND BETA-NAPHTHOFLAVONE, Method: PREINCUBATION): inactive; negative
- mutagenic call (Test System: AMES SALMONELLA TYPHIMURIUM, Strain/Indicator: TA98, Metabolic Activation: RAT, LIVER, S-9, AROCLOR 1254 (10 OR 30%), Method: PREINCUBATION): inactive; negative
- mutagenic call (Test System: AMES SALMONELLA TYPHIMURIUM, Strain/Indicator: TA98, Metabolic Activation: RAT, LIVER, S-9, AROCLOR 1254, Method: PREINCUBATION): inactive; negative
- mutagenic call (Test System: AMES SALMONELLA TYPHIMURIUM, Strain/Indicator: TA100, Metabolic Activation: HAMSTER, LIVER, S-9, AROCLOR 1254 (10 OR 30%), Method: PREINCUBATION): inactive; negative
- mutagenic call (Test System: AMES SALMONELLA TYPHIMURIUM, Strain/Indicator: TA100, Metabolic Activation: HAMSTER, LIVER, S-9, AROCLOR 1254, Method: PREINCUBATION): inactive; negative
- mutagenic call (Test System: AMES SALMONELLA TYPHIMURIUM, Strain/Indicator: TA100, Metabolic Activation: HAMSTER, LIVER, S-9, PHENOBARBITAL AND BETA-NAPHTHOFLAVONE, Method: PREINCUBATION): inactive; negative
- mutagenic call (Test System: AMES SALMONELLA TYPHIMURIUM, Strain/Indicator: TA100, Metabolic Activation: RAT, LIVER, S-9, AROCLOR 1254 (10 OR 30%), Method: PREINCUBATION): inactive; negative
- mutagenic call (Test System: AMES SALMONELLA TYPHIMURIUM, Strain/Indicator: TA100, Metabolic Activation: RAT, LIVER, S-9, AROCLOR 1254, Method: PREINCUBATION): inactive; negative
- mutagenic call (Test System: AMES SALMONELLA TYPHIMURIUM, Strain/Indicator: TA102, Metabolic Activation: HAMSTER, LIVER, S-9, PHENOBARBITAL AND BETA-NAPHTHOFLAVONE, Method: PREINCUBATION): inactive; negative
- mutagenic call (Test System: AMES SALMONELLA TYPHIMURIUM, Strain/Indicator: TA102, Metabolic Activation: HAMSTER, LIVER, S-9, SODIUM PHENOBARBITAL AND 5,6-BENZOFLAVONE, Method: PREINCUBATION): inactive; negative
- mutagenic call (Test System: AMES SALMONELLA TYPHIMURIUM, Strain/Indicator: TA102, Metabolic Activation: NONE, Method: PREINCUBATION): inactive; negative
- mutagenic call (Test System: AMES SALMONELLA TYPHIMURIUM, Strain/Indicator: TA104, Metabolic Activation: HAMSTER, LIVER, S-9, PHENOBARBITAL AND BETA-NAPHTHOFLAVONE, Method: PREINCUBATION): inactive; negative
- mutagenic call (Test System: AMES SALMONELLA TYPHIMURIUM, Strain/Indicator: TA104, Metabolic Activation: HAMSTER, LIVER, S-9, SODIUM PHENOBARBITAL AND 5,6-BENZOFLAVONE, Method: PREINCUBATION): inactive; negative
- mutagenic call (Test System: AMES SALMONELLA TYPHIMURIUM, Strain/Indicator: TA104, Metabolic Activation: NONE, Method: PREINCUBATION): inactive; negative
- mutagenic call (Test System: AMES SALMONELLA TYPHIMURIUM, Strain/Indicator: TA1535, Metabolic Activation: HAMSTER, LIVER, S-9, AROCLOR 1254, Method: PREINCUBATION): inactive; negative
- mutagenic call (Test System: AMES SALMONELLA TYPHIMURIUM, Strain/Indicator: TA1535, Metabolic Activation: HAMSTER, LIVER, S-9, PHENOBARBITAL AND BETA-NAPHTHOFLAVONE, Method: PREINCUBATION): inactive; negative
- mutagenic call (Test System: AMES SALMONELLA TYPHIMURIUM, Strain/Indicator: TA1535, Metabolic Activation: NONE, Method: PREINCUBATION): inactive; negative
- mutagenic call (Test System: AMES SALMONELLA TYPHIMURIUM, Strain/Indicator: TA1535, Metabolic Activation: RAT, LIVER, S-9, AROCLOR 1254, Method: PREINCUBATION): inactive; negative
- mutagenic call (Test System: AMES SALMONELLA TYPHIMURIUM, Strain/Indicator: TA1537, Metabolic Activation: HAMSTER, LIVER, S-9, AROCLOR 1254, Method: PREINCUBATION): inactive; negative
- mutagenic call (Test System: AMES SALMONELLA TYPHIMURIUM, Strain/Indicator: TA1537, Metabolic Activation: HAMSTER, LIVER, S-9, PHENOBARBITAL AND BETA-NAPHTHOFLAVONE, Method: PREINCUBATION): inactive; negative
- mutagenic call (Test System: AMES SALMONELLA TYPHIMURIUM, Strain/Indicator: TA1537, Metabolic Activation: NONE, Method: PREINCUBATION): inactive; negative
- mutagenic call (Test System: AMES SALMONELLA TYPHIMURIUM, Strain/Indicator: TA1537, Metabolic Activation: RAT, LIVER, S-9, AROCLOR 1254, Method: PREINCUBATION): inactive; negative
- mutagenic call (Test System: E. COLI, Strain/Indicator: WP2UVRA/PKM101, Metabolic Activation: HAMSTER, LIVER, S-9, PHENOBARBITAL AND BETA-NAPHTHOFLAVONE, Method: PREINCUBATION): inactive; negative
- mutagenic call (Test System: E. COLI, Strain/Indicator: WP2UVRA/PKM101, Metabolic Activation: NONE, Method: PREINCUBATION): inactive; negative
- mutagenic call (Test System: E. COLI, Strain/Indicator: WP2UVRA, Metabolic Activation: HAMSTER, LIVER, S-9, PHENOBARBITAL AND BETA-NAPHTHOFLAVONE, Method: PREINCUBATION): inactive; negative
- mutagenic call (Test System: E. COLI, Strain/Indicator: WP2UVRA, Metabolic Activation: NONE, Method: PREINCUBATION): inactive; negative
- mutagenic call (Test System: MOUSE LYMPHOMA TYPHIMURIUM, Strain/Indicator: L5178Y (TK+/TK-), Metabolic Activation: RAT, LIVER, S-9, AROCLOR 1254, Method: SUSPENSION/PLATE): active; positive
- mutagenic call (Test System: MOUSE LYMPHOMA, Strain/Indicator: L5178Y (TK+/TK-), Metabolic Activation: NONE, Method: SUSPENSION/PLATE): active; positive
- mutagenic call (Test System: UDS RODENT HEPATOCYTES, Strain/Indicator: THY INCORP (NON-S-PHASE), Metabolic Activation: NONE, Method: AUTORADIOGRAPHY): inactive; negative
